Results on 20 molecules are retold here after patent US10947254B2, “Methods for treating ulcerative colitis using 3-((1R,3s,5S)-3-((7-((5-methyl-1H-pyrazol-3-yl)amino)-1,6-naphthyridin-5-yl)amino)-8-azabicyclo[3.2.1]octan-8-yl)propanenitrile” (priority 2015, dated 2021).

Test [1] has as its system oxazolone-induced colitis. Nature of the test: Mouse model of oxazolone-induced colitis. To be noted: mice, PO, 1, 3, and/or 10 mg/kg BID (doses up to 10 mg/kg BID). It counts as in vivo, BALB/C mice. As to the method: Assay 7: Mouse Model of Oxazalone-Induced Colitis
Oxazolone-induced colitis is an experimental model that has a histological resemblance to human ulcerative colitis (Heller et al. Immunology, 2002, 17, 629-638). Adult BALB/C mice from Harlan were used in the assay. On day 1, animals were lightly anesthetized with isoflurane and the hairs between the shoulder were carefully removed before oxazolone (4%, 150 μL, 4:1 acetone:olive oil formulation) or vehicle solution was slowly applied for skin sensitization. Seven days after skin sensitization, the mice were fasted overnight, anesthetized with isoflurane inhalation, and a 1 mL syringe equipped with a 3.5-F catheter, filled with oxazolone solution, was inserted carefully about 4 cm into the colon of the mouse. Following insertion, 50 μL of the oxazolone solution (1%, 1:1 ethanol:water formulation) was injected very slowly (over 30 sec using an injection pump) into the colon. The catheter was removed and the mice were held vertically (head down) for 2 min to ensure that the entire oxazolone solution remained inside the colon. Drug treatment (PO, BID or TID) or vehicle was initiated a day prior to the oxazolone intrarectal (IR) challenge. Two-day post oxazolone intrarectal challenge, the Disease Activity Index (DAI) was assessed by treatment-blinded experimenters for each mouse according to the criteria score: stool consistency score (0, normal; 2, loose; 4, diarrhea), gross bleeding score (0, absence; 2, blood tinged; 4, presence), and weight loss score (0, none; 1, 1%-5%; 2, 5%-10%; 3, 10%-20%; 4, more than 20%); DAI=average of (stool consistency score+gross bleeding score+weight loss score).
Selected compounds of the invention were tested in the assay. Efficacy in the model is evidenced by a decrease in DAI score as compared with the score from vehicle treated animals.

For test [2], the system named is IL-13 induced STAT6 phosphorylation in BEAS-2B human lung epithelial cells. To be noted: BEAS-2B cells.
In test [3] the test system is IL-4 induced STAT6 phosphorylation in THP-1 human monocytic cells. To be noted: THP-1 cells.
The target of another test is JAK1 (Homo sapiens (Human), UniProt P23458). The format is biochemical. How it is done:
(§1) Assay 1: Biochemical JAK and Off-Target Kinase Assays
(§2) A panel of four LanthaScreen JAK biochemical assays (JAK1, 2, 3 and Tyk2) were carried in a common kinase reaction buffer (50 mM HEPES, pH 7.5, 0.01% Brij-35, 10 mM MgCl2, and 1 mM EGTA). Recombinant GST-tagged JAK enzymes and a GFP-tagged STAT1 peptide substrate were obtained from Life Technologies.
(§3) Serially diluted compounds were pre-incubated with each of the four JAK enzymes and the substrate in white 384-well microplates (Corning) at ambient temperature for 1 h. ATP was subsequently added to initiate the kinase reactions in 10 μL total volume, with 1% DMSO. […] Kinase reactions were allowed to proceed for 1 hour at ambient temperature before a 10 μL preparation of EDTA (10 mM final concentration) and Tb-anti-pSTAT1 (pTyr701) antibody (Life Technologies, 2 nM final concentration) in TR-FRET dilution buffer (Life Technologies) was added. The plates were allowed to incubate at ambient temperature for 1 h before being read on the EnVision reader (Perkin Elmer).
(§4) Results were expressed as pIC50 (negative logarithm of IC50) and subsequently converted to pKi (negative logarithm of dissociation constant, Ki) using the Cheng-Prusoff equation.

Another test deals with TYK2 (Homo sapiens (Human), UniProt P29597). The format is biochemical. How it is done:
as §1, §2, §3, §4

The target of a further test is JAK3 (Homo sapiens (Human), UniProt P52333). Nature of the test: Biochemical JAK assay (LanthaScreen), JAK3. As to the method: as §1, §2
Serially diluted compounds were pre-incubated with each of the four JAK enzymes and the substrate in white 384-well microplates (Corning) at ambient temperature for 1 h. ATP was subsequently added to initiate the kinase reactions in 10 μL total volume, with 1% DMSO. […] The plates were allowed to incubate at ambient temperature for 1 h before being read on the EnVision reader (Perkin Elmer).
as §4
For orientation: TR-FRET usually uses a lanthanide donor and a delayed reading to cut background.

Sequence of JAK1 (P23458 whole entry): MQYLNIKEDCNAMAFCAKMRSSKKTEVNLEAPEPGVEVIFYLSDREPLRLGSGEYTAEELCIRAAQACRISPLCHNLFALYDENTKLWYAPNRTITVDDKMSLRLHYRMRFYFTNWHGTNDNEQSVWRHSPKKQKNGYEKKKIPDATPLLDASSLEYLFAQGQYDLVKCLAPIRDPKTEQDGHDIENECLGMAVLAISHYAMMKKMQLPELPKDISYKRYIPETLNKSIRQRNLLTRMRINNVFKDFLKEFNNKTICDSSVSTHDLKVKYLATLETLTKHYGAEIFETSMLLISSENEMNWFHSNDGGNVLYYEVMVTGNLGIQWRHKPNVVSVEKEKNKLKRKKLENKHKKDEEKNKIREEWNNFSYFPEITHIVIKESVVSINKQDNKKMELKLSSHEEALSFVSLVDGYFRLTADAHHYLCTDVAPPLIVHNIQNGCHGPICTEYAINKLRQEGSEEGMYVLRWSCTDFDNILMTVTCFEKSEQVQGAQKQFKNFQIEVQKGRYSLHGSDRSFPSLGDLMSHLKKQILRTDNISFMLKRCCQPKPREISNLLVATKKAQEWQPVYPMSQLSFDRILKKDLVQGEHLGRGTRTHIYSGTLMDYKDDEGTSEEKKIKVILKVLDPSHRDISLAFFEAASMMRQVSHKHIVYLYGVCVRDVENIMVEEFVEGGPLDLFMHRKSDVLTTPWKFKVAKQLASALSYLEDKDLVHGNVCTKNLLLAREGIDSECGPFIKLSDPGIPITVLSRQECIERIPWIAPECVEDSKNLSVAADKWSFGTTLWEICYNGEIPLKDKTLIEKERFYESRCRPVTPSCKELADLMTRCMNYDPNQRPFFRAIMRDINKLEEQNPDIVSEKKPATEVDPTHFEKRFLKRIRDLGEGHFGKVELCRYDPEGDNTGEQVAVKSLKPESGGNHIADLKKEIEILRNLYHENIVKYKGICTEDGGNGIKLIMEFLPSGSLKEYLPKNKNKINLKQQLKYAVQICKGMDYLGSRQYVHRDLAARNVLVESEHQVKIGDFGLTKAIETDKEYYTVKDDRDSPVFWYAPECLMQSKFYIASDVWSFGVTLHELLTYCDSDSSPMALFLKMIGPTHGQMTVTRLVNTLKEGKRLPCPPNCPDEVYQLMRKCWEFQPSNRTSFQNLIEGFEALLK
Sequence of JAK3 (P52333 whole entry): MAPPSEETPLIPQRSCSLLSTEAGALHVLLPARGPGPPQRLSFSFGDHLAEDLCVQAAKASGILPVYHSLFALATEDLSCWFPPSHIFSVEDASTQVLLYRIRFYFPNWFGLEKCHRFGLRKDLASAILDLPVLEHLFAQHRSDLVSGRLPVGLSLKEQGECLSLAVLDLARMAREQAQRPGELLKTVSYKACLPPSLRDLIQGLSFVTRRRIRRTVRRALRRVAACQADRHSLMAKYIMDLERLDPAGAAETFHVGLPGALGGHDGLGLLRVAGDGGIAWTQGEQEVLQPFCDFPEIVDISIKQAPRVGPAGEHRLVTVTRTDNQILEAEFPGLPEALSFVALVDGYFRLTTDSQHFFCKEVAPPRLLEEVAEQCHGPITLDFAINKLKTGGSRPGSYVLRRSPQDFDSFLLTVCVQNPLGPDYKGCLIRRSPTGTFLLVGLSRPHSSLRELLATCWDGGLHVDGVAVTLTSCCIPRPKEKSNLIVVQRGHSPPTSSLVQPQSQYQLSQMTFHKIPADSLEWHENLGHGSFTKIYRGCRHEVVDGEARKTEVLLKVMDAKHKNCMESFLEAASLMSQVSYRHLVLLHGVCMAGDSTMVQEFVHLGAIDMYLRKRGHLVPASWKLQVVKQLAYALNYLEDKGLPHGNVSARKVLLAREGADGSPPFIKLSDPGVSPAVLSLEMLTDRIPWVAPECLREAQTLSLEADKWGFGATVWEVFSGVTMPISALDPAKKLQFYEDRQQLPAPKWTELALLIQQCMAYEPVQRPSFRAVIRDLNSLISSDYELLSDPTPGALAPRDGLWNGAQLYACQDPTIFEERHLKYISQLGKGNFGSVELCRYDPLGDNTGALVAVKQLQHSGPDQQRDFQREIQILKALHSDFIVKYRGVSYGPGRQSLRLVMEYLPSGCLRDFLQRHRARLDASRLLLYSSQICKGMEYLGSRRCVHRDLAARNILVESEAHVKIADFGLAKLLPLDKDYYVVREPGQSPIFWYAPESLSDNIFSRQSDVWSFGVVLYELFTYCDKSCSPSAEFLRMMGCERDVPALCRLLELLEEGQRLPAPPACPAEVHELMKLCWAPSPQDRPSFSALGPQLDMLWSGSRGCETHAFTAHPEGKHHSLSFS
Sequence of TYK2 (P29597 whole entry): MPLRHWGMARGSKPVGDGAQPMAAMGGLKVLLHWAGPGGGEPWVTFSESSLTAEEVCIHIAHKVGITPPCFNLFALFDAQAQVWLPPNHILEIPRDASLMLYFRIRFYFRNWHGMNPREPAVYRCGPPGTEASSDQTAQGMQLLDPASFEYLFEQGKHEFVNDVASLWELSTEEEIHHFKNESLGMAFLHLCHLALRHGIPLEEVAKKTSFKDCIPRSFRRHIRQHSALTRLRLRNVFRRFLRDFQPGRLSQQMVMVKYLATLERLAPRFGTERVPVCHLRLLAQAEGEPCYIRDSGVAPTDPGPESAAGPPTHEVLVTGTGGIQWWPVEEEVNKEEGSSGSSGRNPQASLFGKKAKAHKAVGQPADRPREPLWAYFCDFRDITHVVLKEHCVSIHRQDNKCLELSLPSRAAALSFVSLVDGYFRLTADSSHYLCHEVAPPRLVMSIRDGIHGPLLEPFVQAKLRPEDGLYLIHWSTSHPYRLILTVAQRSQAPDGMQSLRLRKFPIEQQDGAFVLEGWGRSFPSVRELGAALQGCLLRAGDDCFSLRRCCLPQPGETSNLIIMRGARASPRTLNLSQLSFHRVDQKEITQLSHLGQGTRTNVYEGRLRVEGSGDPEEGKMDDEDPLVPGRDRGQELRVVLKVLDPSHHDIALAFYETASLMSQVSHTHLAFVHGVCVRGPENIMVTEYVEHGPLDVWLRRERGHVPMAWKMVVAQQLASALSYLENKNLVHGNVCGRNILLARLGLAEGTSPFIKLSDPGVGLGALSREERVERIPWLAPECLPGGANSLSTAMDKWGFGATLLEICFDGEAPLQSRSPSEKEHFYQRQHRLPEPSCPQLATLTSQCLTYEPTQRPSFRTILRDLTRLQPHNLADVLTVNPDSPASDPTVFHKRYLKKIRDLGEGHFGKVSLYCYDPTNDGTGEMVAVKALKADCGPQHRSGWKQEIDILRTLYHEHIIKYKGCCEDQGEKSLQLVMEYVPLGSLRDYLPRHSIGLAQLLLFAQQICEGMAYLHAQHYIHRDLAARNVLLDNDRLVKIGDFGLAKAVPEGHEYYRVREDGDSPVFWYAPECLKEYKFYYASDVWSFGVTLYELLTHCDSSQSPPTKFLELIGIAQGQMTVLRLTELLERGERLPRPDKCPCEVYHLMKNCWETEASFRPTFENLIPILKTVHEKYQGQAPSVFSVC

Turning to `Cc1cc(Nc2cc3ncccc3c(N[C@@H]3C[C@H]4CCC[C@@H](C3)N4S(=O)(=O)CC3CC3)n2)n[nH]1` [Example 4-23], the “decrease in DAI score as compared with vehicle treated animals” value (shortened to “decrease in DAI score”) in test [1] is reported as “did not exhibit a statistically significant decrease”. Further, in test [2], the “BEAS2B pIC50” value is reported as “A (A represents a pEC50 value ≥7.5 (EC50≤32 nM))”. The “THP-1 IL4 pIC50” value in test [3] is “A (A represents a pEC50 value ≥7.5 (EC50≤32 nM))”.

Turning to `CCC(C)C(=O)N1C2CCC1CC(Nc1nc(Nc3cc(C)[nH]n3)cc3ncccc13)C2` (centres unmarked) [Example 2-6], the “decrease in DAI score” value in test [1] is given as “did not exhibit a statistically significant decrease”. Besides, the “BEAS2B pIC50” value in test [2] is recorded as “A (A represents a pEC50 value ≥7.5 (EC50≤32 nM))”.

As for `Cc1cc(Nc2cc3nc(CO)ccc3c(N[C@@H]3C[C@H]4CC[C@@H](C3)N4CCC#N)n2)n[nH]1` [Example 5-11], the “decrease in DAI score” value in test [1] is reported as “did not exhibit a statistically significant decrease”. Further, the “THP-1 IL4 pIC50” value in test [3] was “A (A represents a pEC50 value ≥7.5 (EC50≤32 nM))”.

`Cc1cc(Nc2cc3ncccc3c(N[C@@H]3C[C@H]4CC[C@@H](C3)N4S(=O)(=O)CC(C)C)n2)n[nH]1` [Example 4-3]: the “decrease in DAI score” value in test [1] is “did not exhibit a statistically significant decrease”. Further, the “BEAS2B pIC50” value in test [2] is on record as “A (A represents a pEC50 value ≥7.5 (EC50≤32 nM))”. Further, the “THP-1 IL4 pIC50” value in test [3] was “A (A represents a pEC50 value ≥7.5 (EC50≤32 nM))”.

As for `Cc1cc(Nc2cc3ncccc3c(N[C@@H]3C[C@H]4CCC[C@@H](C3)N4C(=O)C(C)(C)CO)n2)n[nH]1` [Example 2-22], the “decrease in DAI score” value in test [1] was “did not exhibit a statistically significant decrease”. Further, the “BEAS2B pIC50” value in test [2] is recorded as “A (A represents a pEC50 value ≥7.5 (EC50≤32 nM))”.

Take `COC(=O)c1cnc2cc(Nc3cc(C)[nH]n3)nc(N[C@@H]3C[C@H]4CCC[C@@H](C3)N4C3CCOC(=O)C3)c2c1` (some centres unmarked) [Example 6-48]: the “JAK 1 (pKi)” value on JAK1 was “B (B represents a pKi value between 9 and 10 (Ki between 1 nM and 0.1 nM))”. The “Tyk 2 (pKi)” value at TYK2 is “C (C represents a pKi value between 7 and 9 (Ki between 100 nM and 1 nM))”. For the same molecule, on JAK3, the “JAK 3 (pKi)” value was “C (C represents a pKi value between 7 and 9 (Ki between 100 nM and 1 nM))”. In addition, the “THP-1 IL4 pIC50” value in test [3] is “B (B represents a pEC50 value between 6.7 and 7.5 (EC50 between 200 nM and 32 nM))”.

For the molecule `COCCS(=O)(=O)N1[C@@H]2CCC[C@H]1C[C@H](Nc1nc(Nc3cc(C)[nH]n3)cc3ncccc13)C2` [Example 4-19], in test [1], the “decrease in DAI score” value is “did not exhibit a statistically significant decrease”. In test [2], the “BEAS2B pIC50” value is “A (A represents a pEC50 value ≥7.5 (EC50≤32 nM))”. Moreover, in test [3], the “THP-1 IL4 pIC50” value is “A (A represents a pEC50 value ≥7.5 (EC50≤32 nM))”.

Consider `CCOCC(=O)N1[C@@H]2CCC[C@H]1C[C@H](Nc1nc(Nc3cc(C)[nH]n3)cc3ncccc13)C2` [Example 2-17], for which the “decrease in DAI score” value in test [1] was “did not exhibit a statistically significant decrease”. For the same molecule, in test [2], the “BEAS2B pIC50” value is listed as “A (A represents a pEC50 value ≥7.5 (EC50≤32 nM))”.

With `Cc1cc(Nc2cc3ncccc3c(N[C@@H]3C[C@H]4CC[C@@H](C3)N4CCF)n2)n[nH]1` [Example 2, N^5-((1R,3s,5S)-8-(2-fluoroethyl)-8-azabicyclo[3.2.1]octan-3-yl)-N^7-(5-methyl-1H-pyrazol-3-yl)-1,6-naphthyridine-5,7-diamine], in test [1], the “decrease in DAI score” value is given as “statistically significant decrease”.

In the case of `Cc1cc(Nc2cc3ncccc3c(N[C@@H]3C[C@H]4CCC[C@@H](C3)N4S(=O)(=O)C3CC3)n2)n[nH]1` [Example 4-18], the “decrease in DAI score” value in test [1] is recorded as “did not exhibit a statistically significant decrease”. For the same molecule, in test [2], the “BEAS2B pIC50” value is on record as “A (A represents a pEC50 value ≥7.5 (EC50≤32 nM))”. The “THP-1 IL4 pIC50” value in test [3] is “A (A represents a pEC50 value ≥7.5 (EC50≤32 nM))”.

In the case of `CCC(=O)N1[C@@H]2CC[C@H]1C[C@H](Nc1nc(Nc3cc(C)[nH]n3)cc3ncccc13)C2` [Example 2-1], the “decrease in DAI score” value in test [1] is “did not exhibit a statistically significant decrease”.

In the case of `Cc1cc(Nc2cc3ncccc3c(N[C@@H]3C[C@H]4CCC[C@@H](C3)N4C(=O)CN(C)C)n2)n[nH]1` [Example 4, 2-(Dimethylamino)-1-((1R,3s,5S)-3-((7-((5-methyl-1H-pyrazol-3-yl)amino)-1,6-naphthyridin-5-yl)amino)-9-azabicyclo[3.3.1]nonan-9-yl)ethan-1-one], the “decrease in DAI score” value in test [1] is “statistically significant decrease”.

As to `CCS(=O)(=O)N1[C@@H]2CC[C@H]1C[C@H](Nc1nc(Nc3cc(C)[nH]n3)cc3ncccc13)C2` [Example 7, N^5-((1R,3s,5S)-8-(ethylsulfonyl)-8-azabicyclo[3.2.1]octan-3-yl)-N^7-(5-methyl-1H-pyrazol-3-yl)-1,6-naphthyridine-5,7-diamine], the “decrease in DAI score” value in test [1] is recorded as “did not exhibit a statistically significant decrease”.

As for `Cc1cc(Nc2cc3nc(CO)ccc3c(N[C@@H]3C[C@H]4CC[C@@H](C3)N4C(=O)OCC(C)C)n2)n[nH]1` [Example 12, Isobutyl (1R,3s,5S)-3-((2-(hydroxymethyl)-7-((5-methyl-1H-pyrazol-3-yl)amino)-1,6-naphthyridin-5-yl)amino)-8-azabicyclo[3.2.1]octane-8-carboxylate], the “decrease in DAI score” value in test [1] is “statistically significant decrease”.

`Cc1cc(Nc2cc3ncccc3c(N[C@@H]3C[C@H]4CC[C@@H](C3)N4S(=O)(=O)N3CC(C#N)C3)n2)n[nH]1` [Example 13]: the “decrease in DAI score” value in test [1] was “did not exhibit a statistically significant decrease”.

Take `Cc1cc(Nc2cc3ncccc3c(N[C@@H]3C[C@H]4CC[C@@H](C3)N4S(=O)(=O)Cc3ccccc3)n2)n[nH]1` [Example 4-13]: the “decrease in DAI score” value in test [1] is given as “did not exhibit a statistically significant decrease”. In test [2], the “BEAS2B pIC50” value is “A (A represents a pEC50 value ≥7.5 (EC50≤32 nM))”.

Turning to `COC(=O)c1cnc2cc(Nc3cc(C)[nH]n3)nc(N[C@@H]3C[C@H]4CC[C@@H](C3)N4CCCF)c2c1` [Example 6-44], at JAK1, the “JAK 1 (pKi)” value is “B (B represents a pKi value between 9 and 10 (Ki between 1 nM and 0.1 nM))”.

Take `COCCS(=O)(=O)N1[C@@H]2CC[C@H]1C[C@H](Nc1nc(Nc3cc(C)[nH]n3)cc3ncccc13)C2` [Example 6, N^5-((1R,3s,5S)-8-((2-methoxyethyl)sulfonyl)-8-azabicyclo[3.2.1]octan-3-yl)-N^7-(5-methyl-1H-pyrazol-3-yl)-1,6-naphthyridine-5,7-diamine]: the “decrease in DAI score” value in test [1] is “statistically significant decrease”.

In the case of `Cc1cc(Nc2cc3ncccc3c(N[C@@H]3C[C@H]4CCC[C@@H](C3)N4C(=O)Cc3ccccc3)n2)n[nH]1` [Example 2-24], the “decrease in DAI score” value in test [1] is recorded as “did not exhibit a statistically significant decrease”. In test [2], the “BEAS2B pIC50” value is given as “A (A represents a pEC50 value ≥7.5 (EC50≤32 nM))”. For the same molecule, the “THP-1 IL4 pIC50” value in test [3] is “A (A represents a pEC50 value ≥7.5 (EC50≤32 nM))”.

In the case of `Cc1cc(Nc2cc3ncccc3c(N[C@@H]3C[C@H]4CCC[C@@H](C3)N4S(=O)(=O)N3CC(C#N)C3)n2)n[nH]1` [Example 11], in test [1], the “decrease in DAI score” value is “did not exhibit a statistically significant decrease”.
